Columns and labels:
[1] = tested on: transgenic AD rat model (human APP mutant protein, SD rats); assay: T-maze test of AD rats; format: in vivo; settings: model vs administration group
Protocol: The T-maze test had four stages: I. in an acclimatization stage, food was placed in both arms, and valves on both arms were opened. Each rat was trained twice. All rats entered the next stage after they had eaten the food on both sides within 5 min twice. II. In a forced training stage, a valve on one side was closed first, and the rats were allowed to eat the food on the opposite side. A valve on the opposite side was closed again, and the rats were allowed to eat the food on the other side. This was a training process. Each animal was trained 4 times a day for 3 days. III.
In an optional training stage, the valve on one side was closed in half first, and the rats were allowed to eat the food on the opposite side. All the valves were then closed. If the rats went to the other side, they could finish eating the food there. If the rats went to the same side, there was no food here, and they were closed on this side for 30 s. This was a training process. Each animal was trained 4 times a day until the accuracy rate exceeded 75% for 2 consecutive days and proceeded to the next stage. IV.
In a delayed optional test stage, it was basically the same as the operation of the III stage, except that interval time was added after the forced training stage and before the optional training stage. The interval time was set to 1.5 min, 3 min, and 10 min. Test was performed for 4 times at each time.

[2] = tested on: C57BL/6 mice modeled with MPTP; assay: PD mouse model (MPTP); format: in vivo; settings: 80 mpk, 15 days; vs model group, T-test
Protocol: • Experimental and analytical method: mice of C57BL/6 strain were used in this experiment, which were divided into 5 groups, including a normal control group (no injection of MPTP), a model group (modeling with MPTP), and treatment groups of three small molecules (Embodiment 13B, Embodiment 25A, and Embodiment 25B). The drug was administered at the same time as modeling was made. The modeling lasted for 5 days, followed by 30 mpk intraperitoneal injection till lasting for 15 days, and lasted for 15 days at 80 mpk. At the endpoint, the brain was soaked and fixed in PFA after cardiac perfusion, and transferred to sucrose dehydration after complete fixation, and OCT embedding and sectioning were used for TH staining after complete dehydration. The detection indicator was the number of TH-positive cells in the substantia nigra. The more positive cells, the better the protection effect of small molecules against MPTP damage. • Results: there were 12 mice in each group, and the statistical results were shown in FIG. 50, T-test, **: p<0.01, #: p<0.05.

[3] = tested on: SARS-CoV-2 pseudovirus (HEK293T cells); format: cell-based
male SD rats, TBI model = assay: Acute traumatic brain injury (TBI) rat model; format: in vivo; settings: 80 mpk once a day, 7 days; vs solvent control (P<0.05)
Protocol: • Experimental and analytical method: male SD rats were used in this experiment to establish a TBI rat model, which was randomly divided into: a solvent control group (8 rats), a test product Embodiment 13B (80 mpk, 10 rats), and a test product Embodiment 26 (80 mpk, 9 rats). After TBI surgery, drugs were administered by gavage once a day for 7 consecutive days.

APOE−/− mutant B6J mice = assay: Cardiovascular inflammation of APOE mutant mice fed with high-fat diets; format: in vivo, mouse; settings: oral gavage once every 2 days, high-fat diets 16 weeks
Excerpt: Experimental and analytical method: 6-week-old male APOE−/− mutant B6J mice and WT B6J mice were purchased and acclimatized in a feeding room for 2 weeks. When the mice were 8 weeks old, except for a Vehicle group and a WT group, the rest of the groups were given high-fat diets (Research Diets, D12492). When the mice were 9 weeks old, the Control group was given a 10% cyclodextrin solution, while the rest of the administration groups began to be grouped and administrated with different small molecule compounds (Embodiment 13B, Embodiment 33, Embodiment 36 and Embodiment 37) by oral gavage, at a frequency of once every 2 days. After being fed with high-fat diets for 16 weeks, the APOE mice were sacrificed and aortic arches were taken and dissected.

SOD^G93A transgenic mice = assay: Gait analysis of SOD^G93A mice; settings: 40 mpk from Day 60, tested at Week 19; vs model group
Excerpt: Gait analysis was a behavioral analysis method that tested motor dysfunction. The mice with motor dysfunction would have a significant reduction in stride length. Our experiments were divided into two groups, i.e., a model group and an administration group.

[4] = tested on: TDP43^A315T transgenic mice; settings: 40 mpk from Day 60
Excerpt: Our experiments were divided into two groups, i.e., a model group and an administration group.

C[C@H]1CC[C@@]2(OC1)O[C@H]1C[C@@H]3[C@H](CC[C@H]4[C@H]3CC[C@@H]3C[C@H](NC(=O)CC(=O)N5CCN(CCN(C)C)CC5)CC[C@@]34C)[C@H]1[C@@H]2C [Embodiment 13b]
working memory in delayed optional T-maze test ([1]; interval 1.5 min, administered from 7 to 15 months of age): no significant difference
working memory in delayed optional T-maze test ([1]; interval 3 min): no significant difference
working memory in delayed optional T-maze test ([1]; interval 10 min): working memory of the administration group also persisted
number of TH-positive cells in the substantia nigra [2]: statistically significant differences
mitochondrial fragmentation after pseudovirus infection [3]: not fragmented
early brain apoptosis rates (male SD rats, TBI model): significantly lower
total apoptosis rates (male SD rats, TBI model): significantly lower
inflammatory factors IL10, IL-1β and KC/GRO in aortic vascular epithelial tissue (APOE−/− mutant B6J mice): most significant
stride length (SOD^G93A transgenic mice): much larger
survival time (in words) [4]: could effectively prolong the survival time
start of significant body weight decrease ([4]; model group Week 13): 16 Week
death median ([4]; model group about Day 120): 135 days
all died ([4]; model group about Day 140): 150 days
first deaths ([4]; model group from Day 90): > 100 days

From patent US20250213593A1, “Use of Derivatives based on Sarsasapogenin Structure and Pharmaceutical Compositions thereof” (BEIJING PHYTOVENT PHARMACEUTICAL TECHNOLOGY CO., LTD., priority 2022, published 2025)
